Source: US12709596B2, “Molecules” (ENA Respiratory Pty Ltd, priority 2019, dated 2026)

Tests used:
human TLR2 (hTLR2) = biological target: T1, human TLR2 (hTLR2) (Homo sapiens, UniProt O60603); test: HEK-BLUE-hTLR2 cell assay (NF-kB induced SEAP, read at 620 nm); format: cell-based; conditions: HEK-BLUE-hTLR2 cells, 16 hr
T1 construct: host or cells: HEK293 (HEK-BLUE-hTLR2)
Protocol: The potency of the compounds as activators of human TLR-2s is tested in an in vitro assay in HEK-BLUE-hTLR2 cells.
HEK-BLUE-hTLR2 cells are designed for studying the stimulation of human TLR2 (hTLR2) by monitoring the activation of NF-kB. HEK-BLUE-hTLR2 cells are obtained by co-transfection of the hTLR2 and SEAP (secreted embryonic alkaline phosphatase) reporter genes into HEK293 cells. Stimulation with a TLR2 ligand activates NF-kB which induces the production of SEAP.
HEK-BLUE-hTLR2 cells were purchased from InvivoGen (San Diego, CA, USA). Cells were grown in DMEM supplemented with 10% FCS, 100 U/ml penicillin, 100 ug/ml streptomycin and 2 mM L-glutamine, 100 μg/mL Normocin in the presence of selection antibiotic purchased from InvivoGen and passaged when 70% confluence was reached per manufacturer's recommendation. […]

[1] = Stability II: 9 day stability under accelerated conditions in EDTA/saline pH 5 by HPLC; format: physicochemical; conditions: 40° C./75% RH, 9 days
Protocol: Stability was measured using reversed phase HPLC with a UV detector analytical wavelength of 205 nm. Peak areas of each compound at the 9 day time point were compared with areas at time zero. Compound stability at day 9 was calculated as a percentage of the time zero peak area data. Compound stability was further assessed by comparison with a reference sample of the same compound. […] Thawed samples were sonicated and measured by HPLC.

T1 sequence (O60603 21-784): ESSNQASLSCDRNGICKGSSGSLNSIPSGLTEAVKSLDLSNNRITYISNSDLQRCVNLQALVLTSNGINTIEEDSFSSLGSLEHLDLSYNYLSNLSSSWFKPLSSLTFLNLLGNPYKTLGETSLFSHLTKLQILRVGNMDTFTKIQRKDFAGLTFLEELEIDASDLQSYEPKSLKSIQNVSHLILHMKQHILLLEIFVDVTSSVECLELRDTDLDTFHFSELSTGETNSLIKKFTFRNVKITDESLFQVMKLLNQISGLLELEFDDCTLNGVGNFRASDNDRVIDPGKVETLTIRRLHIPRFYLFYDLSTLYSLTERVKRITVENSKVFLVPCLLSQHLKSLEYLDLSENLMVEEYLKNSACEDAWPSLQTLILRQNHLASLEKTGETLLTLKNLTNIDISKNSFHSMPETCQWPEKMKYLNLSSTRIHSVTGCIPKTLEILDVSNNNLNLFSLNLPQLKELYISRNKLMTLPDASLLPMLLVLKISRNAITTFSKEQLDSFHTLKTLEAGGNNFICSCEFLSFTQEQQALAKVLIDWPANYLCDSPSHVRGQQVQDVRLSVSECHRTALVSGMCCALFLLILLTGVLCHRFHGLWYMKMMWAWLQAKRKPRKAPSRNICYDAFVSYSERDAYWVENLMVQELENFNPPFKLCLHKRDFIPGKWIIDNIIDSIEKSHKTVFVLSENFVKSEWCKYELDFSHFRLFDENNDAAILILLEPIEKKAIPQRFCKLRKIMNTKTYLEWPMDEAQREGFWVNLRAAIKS
T1 sequence (Q9Y2C9 32-796 partner): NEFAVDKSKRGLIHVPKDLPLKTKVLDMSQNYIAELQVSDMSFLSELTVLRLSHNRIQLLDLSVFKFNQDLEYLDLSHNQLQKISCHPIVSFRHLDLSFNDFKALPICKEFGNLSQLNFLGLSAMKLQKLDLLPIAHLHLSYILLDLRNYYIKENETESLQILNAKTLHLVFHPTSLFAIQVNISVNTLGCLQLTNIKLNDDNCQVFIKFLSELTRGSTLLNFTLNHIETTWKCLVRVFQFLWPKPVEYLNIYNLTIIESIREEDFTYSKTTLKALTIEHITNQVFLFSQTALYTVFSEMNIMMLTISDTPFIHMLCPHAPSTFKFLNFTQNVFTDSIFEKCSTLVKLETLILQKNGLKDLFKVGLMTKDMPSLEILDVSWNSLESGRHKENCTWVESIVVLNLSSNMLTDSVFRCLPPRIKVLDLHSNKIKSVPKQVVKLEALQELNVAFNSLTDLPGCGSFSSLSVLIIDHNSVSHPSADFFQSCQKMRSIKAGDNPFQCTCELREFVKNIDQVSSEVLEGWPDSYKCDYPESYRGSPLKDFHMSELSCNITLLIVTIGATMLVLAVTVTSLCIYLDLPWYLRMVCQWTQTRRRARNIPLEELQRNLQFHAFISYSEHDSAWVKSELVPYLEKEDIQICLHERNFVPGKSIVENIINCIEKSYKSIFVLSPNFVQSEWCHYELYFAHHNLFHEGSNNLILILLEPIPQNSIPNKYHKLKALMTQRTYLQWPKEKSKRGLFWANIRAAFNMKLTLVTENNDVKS

CCCCCCCCCCCCCCC(C)C(=O)OCC[C@H](CSC[C@H](N)C(=O)N[C@@H](CO)C(=O)NCCOCCOCCOCCOCCOCCOCCOCCOCCOCCOCCOCCOCCOCCOCCOCCOCCOCCOCCOCCOCCOCCOCCOCCOCCOCCOCCOCCOCCC(=O)NCC(N)=O)OC(=O)C(C)CCCCCCCCCCCCCC (stereo partly drawn) [Compound 36]
TLR2 activity (HEK-BLUE-hTLR2 assay, FIG. 4) (human TLR2 (hTLR2)): significant activity at TLR2 | stability over the 9 day test period ([1]; pH 5 EDTA/saline): substantial stability | stability under the accelerated conditions relative to comparator compound ([1]; versus compound (8) of WO2019/119067): superior stability
